Experimental data as given in US20090124587A1, “METHODS FOR TREATING CANCER USING 17alpha-HYDROXYLASE/C17,20-LYASE INHIBITORS” (priority 2007, published 2009).
Read-outs that look alike come from different tables or passages of the source.

Experiment: Pharmacokinetic study of abiraterone in hormone refractory prostate cancer patients, oral doses 250-2000 mg/day, fasted
Assay type: in vivo, human
Conditions: mean, fasted, plasma; for AUC(0-t) / Cmax / Tmax / AUC(0-inf): male, human; for AUC(0-inf): read-out: AUCINF_obs
Procedure: A group of 15 subjects was divided into five groups. Members of each group were orally administered doses of 250 mg/day, 500 mg/day, 750 mg/day, 1000 mg/day or 2000 mg/day once a day. Before administration the subjects had fasted. PK blood samples were measured at 1, 2, 4, 6, 8, 24, and 72 hours post dose.
To measure the amount of abiraterone and abiraterone acetate in the samples, these compounds were extracted from 100 uL human plasma using solid phase extraction (SPE) with cation mixed-mode polymer cartridges. Extracts were evaporated to dryness before reconstitution and analysis. Chromatography was carried out using a Luna™ C5 column (5 μm, 50 mm×2.1 mm id) with a gradient mobile phase consisting of 10 mM ammonium acetate and 2% propan-2-ol in acetonitrile. The flow rate was 0.2 mL/min and the run time 10.5 minutes. Abiraterone and abiraterone acetate were ionized using the electrospray interface in positive ion mode. Detection of analytes was via tandem mass spectrometry (MS/MS) in the multiple reaction monitoring (MRM) mode.
PK modeling was conducted using a non-compartmental model, extra vascular input for plasma with WinNonLin Software®. Pharmacokinetic parameters estimated in the model include: […]

[1] = 250 mg/day abiraterone acetate oral
[2] = 500 mg/day abiraterone acetate oral
[3] = 750 mg/day abiraterone acetate oral
[4] = 1000 mg/day abiraterone acetate oral
[5] = 2000 mg/day abiraterone acetate oral

Structure (SMILES): C[C@]12CC[C@H](O)CC1=CC[C@@H]1[C@@H]2CC[C@]2(C)C(c3cccnc3)=CC[C@@H]12 [Abiraterone]
- AUC(0-t) [1]: 1.25 µM·h
- Cmax [1]: 219 nM
- Tmax [1]: 2.05 h
- AUC(0-inf) [1]: 1.37 µM·h
- AUC(0-t) [2]: 1.33 µM·h
- Cmax [2]: 284 nM
- Tmax [2]: 2.59 h
- AUC(0-inf) [2]: 1.45 µM·h
- AUC(0-t) [3]: 4.29 µM·h
- Cmax [3]: 1030 nM
- Tmax [3]: 1.71 h
- AUC(0-inf) [3]: 4.54 µM·h
- AUC(0-t) [4]: 5.03 µM·h
- Cmax [4]: 659 nM
- Tmax [4]: 3.09 h
- AUC(0-inf) [4]: 5.32 µM·h
- AUC(0-t) [5]: 4.75 µM·h
- Cmax [5]: 531 nM
- Tmax [5]: 2.67 h
- AUC(0-inf) [5]: 4.98 µM·h
- Cl_F_obs [1]: 567.2 L/h
- HL_Lambda_z [1]: 11.6 h
- Vz_F_obs [1]: 10772.0 L
- Cl_F_obs [2]: 1347.2 L/h
- HL_Lambda_z [2]: 9.5 h
- Vz_F_obs [2]: 14032.5 L
- Cl_F_obs [3]: 494 L/h
- HL_Lambda_z [3]: 10.8 h
- Vz_F_obs [3]: 8340 L
- Cl_F_obs [4]: 861.6 L/h
- HL_Lambda_z [4]: 9.9 h
- Vz_F_obs [4]: 10125.5 L
- Cl_F_obs [5]: 1280.3 L/h
- HL_Lambda_z [5]: 12.0 h
- Vz_F_obs [5]: 21598.8 L
